{
  "source": "patent US20200179352A1",
  "about": "“USE OF VALBENAZINE FOR TREATING LEVODOPA-INDUCED DYSKINESIA” (Neurocrine Biosciences, Inc., priority 2017, published 2020)",
  "origin": "cited, not measured here",
  "details": "series of 448 patients with various hyperkinetic movement disorders treated with tetrabenazine from 1997-2004",
  "data": [
    {"compound": "COc1cc2c(cc1OC)C1CC(=O)C(CC(C)C)CN1CC2", "note": "(stereo not shown) [tetrabenazine, 3-isobutyl-9,10-dimethoxy-1,3,4,6,7,11b-hexahydro-2H-pyrido[2,1-a]isoquinolin-2-one]", "values": [
      {"measurement": "adverse event rate for parkinsonism", "result": 15.4, "unit": "%"}
    ]}
  ]
}
